Test results from patent publication US10946094B2, “Adenoassociated viral mediated persistant anti-VEGF therapy for ovarian cancer” (Cornell University, priority 2015, dated 2021).

Legend:
[1] = system: A2780 ovarian cancer cells; assay: Survival of A2780 tumor-bearing mice pretreated with chemotherapeutic, followed by AAV vector; format: in vivo, Balb/c nude mice; details: for Efficacy as single agents at the doses and schedules used: survival of A2780 tumor-bearing mice
Protocol: Xenografts of human ovarian cancer cells were established by administering 5 million A2780 ovarian cancer cells intraperitoneally in 6 to 8 week old female Balb/c nude mice. Survival was analyzed in the mice which were either left untreated, treated with the chemotherapeutic topotecan in combination with an AAV vector, or treated with the chemotherapeutic paclitaxel in combination with an AAV vector. To establish the topotecan-AAVrh. 10BevMab combination treatment model, 2 weeks after injection of the A2780 ovarian cancer cells, the mice were treated with topotecan at 0.625 mg/kg body weight/day, 5 times/week for 3 weeks (see, Delord et al., Ann. Oncol., 16: 1889-1897 (2005)). […] To establish the paclitaxel-AAVrh.10BevMab combination treatment model, 1 week after injection of the A2780 ovarian cancer cells, the mice were treated with paclitaxel at 20 mg/kg body weight, once/week for 2 weeks (see, Vassileva et al., Mol Cancer Ther., 7: 630-637 (2008)).

recurrent ovarian cancer = details: single agent, patients with recurrent ovarian cancer; cited from earlier work

Molecule | Median survival ([1]; paclitaxel model: 20 mg/kg once/week for 2 weeks from week 1, vector at week 3) [days] | Efficacy as single agents at the doses and schedules used [1] | Median survival ([1]; topotecan model: 0.625 mg/kg/day, 5 times/week for 3 weeks from week 2, vector at week 5) [days] | Responsive rate (recurrent ovarian cancer) [%]
CC(=O)O[C@H]1C(=O)[C@@]2(C)[C@H]([C@H](OC(=O)c3ccccc3)[C@]3(O)C[C@H](OC(=O)[C@H](O)[C@@H](NC(=O)c4ccccc4)c4ccccc4)C(C)=C1C3(C)C)[C@]1(OC(C)=O)CO[C@@H]1C[C@@H]2O [paclitaxel] | 31 | efficacious | – | –
CC[C@@]1(O)C(=O)OCc2c1cc1n(c2=O)Cc2cc3c(CN(C)C)c(O)ccc3nc2-1 [Topotecan, topotecan] | – | efficacious | 50 | –
Bevacizumab | – | – | – | 21
